Measured values from article PMC7013731, “Elucidating the Structural Basis of the Intracellular pH Sensing Mechanism of TASK-2 K2P Channels” (International Journal of Molecular Sciences, 2020).

What was measured:
TASK-2 = target: T1, TASK-2 (Mus musculus, UniProt Q9JK62); experiment: whole-cell patch clamp, transfected HEK-293 cells; format: cell-based
T1 construct: gene Kcnk5; full-length TASK-2 plasmid transiently expressed in HEK-293 cells with separate GFP marker plasmid; homodimer
T1 sequence (Q9JK62 1-502): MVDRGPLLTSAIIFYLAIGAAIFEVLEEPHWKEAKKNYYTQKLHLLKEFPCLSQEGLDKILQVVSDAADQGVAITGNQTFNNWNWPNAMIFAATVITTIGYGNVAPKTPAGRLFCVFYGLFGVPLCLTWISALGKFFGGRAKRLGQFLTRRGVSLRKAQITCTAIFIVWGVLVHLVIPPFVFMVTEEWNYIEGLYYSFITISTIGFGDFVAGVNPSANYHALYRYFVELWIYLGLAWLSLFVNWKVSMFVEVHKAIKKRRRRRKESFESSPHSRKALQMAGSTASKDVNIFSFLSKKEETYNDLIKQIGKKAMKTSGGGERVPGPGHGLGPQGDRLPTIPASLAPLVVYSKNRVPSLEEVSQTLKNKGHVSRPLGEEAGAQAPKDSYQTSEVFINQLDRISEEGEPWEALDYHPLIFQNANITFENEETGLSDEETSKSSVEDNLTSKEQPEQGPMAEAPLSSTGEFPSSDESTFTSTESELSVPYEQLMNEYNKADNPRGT

Lys245 = Lys245 (UniProt position 245, LFVNWKVSMFV); experiment: electrophysiology; conditions: wild-type channel, gating by intracellular pH (pHi); cited from earlier work

NCCC(Oc1ccc(C(F)(F)F)cc1)c1ccccc1 (racemic) [norfluoxetine]
IC50 (TASK-2): 17 ± 5 µM

TASK-2 (K2P5.1, TWIK-related acid-sensitive K+ channel 2) (Mus musculus (inferred from GenBank AF319542; species not stated in the article))
pKa (Lys245): ~8.0
